Data as given in patent publication EP3760204A1, “MEDICAMENT FOR PREVENTION OR TREATMENT OF HUNTINGTON'S DISEASE” (Medizinische Universität Graz, priority 2019, dated 2021).

Assays:
HepG2 cells [1] = experiment: Autophagic flux assay (LC3 II Western blot, with or without chloroquine) in HepG2 cells; assay type: cell-based, human; details: 50µM hyperforin vs ethanol vehicle, Figure 6A
Protocol: (§1) Western blot: Protein lysate was generated by homogenization (Magnalyzer, Roche) of tissue or cell pellet in homogenization buffer with protease and phosphatase inhibitors (Halt tablets, Invitrogen). After homogenization, lysates were sonicated 2x for 10" each. Lysates were then centrifuged for 10 min at 4°C and the supernatant was subjected to BCA protein estimation (Thermo Fisher). Equal amounts of lysate were loaded to self-made acrylamide gels. After separation, the protein was transferred to a PVDF membrane with semi-dry transfer.

alpha-1-antitrypsin = experiment: Pathological alpha-1-antitrypsin (Z-allele) accumulation in transfected HeLa cells; assay type: cell-based, human; details: HeLa cells transfected with PXR/RXR and Z-allele of alpha-1-antitrypsin, 50µM, 24h; Figure 10
Protocol: as §1

HepG2 cells [2] = experiment: pGFP-RFP-LC3 autophagic flux assay in transfected HepG2 cells; details: fed condition, 50µM, Figures 3C, 6C
TFEB = experiment: LC3 II induction after TFEB knockdown (siTFEB) in HepG2 cells; assay type: cell-based, human; details: 50µM, +/- chloroquine, Figure 9
Protocol: as §1

Substance: hyperforin
- LC3 II protein (HepG2 cells [1]): induces
- pathological A1AT accumulation (alpha-1-antitrypsin): robustly decreases
- autophagic flux (GFP-RFP-LC3 dots) (HepG2 cells [2]): induced autophagic flux
- LC3 II in the presence of TFEB (TFEB; non-targeting control (NT) HepG2 cells): induces
- LC3 II induction in siTFEB cells (TFEB; siTFEB HepG2 cells): blunted
